Literature values in patent US8536188B2, “Dosing regimens for treatment of proliferative disorders comprising administration of sapacitabine” (Cyclacel Limited, priority 2007, dated 2013).

Key:
[1] = test system: human tumour cells from various organs
cytidine deaminase = cytidine deaminase (Homo sapiens, UniProt P32320); conditions: compared with ara-C
colon cancer = conditions: model of colon cancer
[2] = test system: ara-C-resistant tumour cell lines
[3] = in vivo
[4] = phase I, patients with a variety of cancers
[5] = test system: cancer cell lines, including those lacking deoxycytidine kinase; conditions: variety of cancer cell lines
[6] = single dose in rodents; repeat dose up to 3 months in mice and dogs
CTCL = CTCL patients
NSCLC = conditions: 10 mg/m^2 intravenously over 30 minutes every three weeks

Sequence of cytidine deaminase (P32320 whole entry, species assumed): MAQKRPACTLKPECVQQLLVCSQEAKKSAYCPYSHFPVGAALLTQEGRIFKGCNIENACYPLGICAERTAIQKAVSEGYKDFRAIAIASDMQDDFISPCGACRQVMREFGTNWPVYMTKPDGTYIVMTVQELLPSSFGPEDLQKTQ

Compound: N#C[C@H]1[C@H](O)[C@@H](CO)O[C@H]1n1ccc(N)nc1=O [CNDAC, 2′-C-Cyano-2′-deoxy-β-D-arabino-pentafuranosylcytosine]
- activity against human tumour cells [1]: broad spectrum of activity
- substrate of cytidine deaminase (cytidine deaminase): weak substrate

Compound: CCCCCCCCCCCCCCCC(=O)Nc1ccn([C@@H]2O[C@H](CO)[C@@H](O)[C@@H]2C#N)c(=O)n1 [sapacitabine, 2′-cyano-2′-deoxy-N^4-palmitoyl-1-β-D-arabinofuranosylcytosine]
- activity against human tumour cells [1]: broad spectrum of activity
- anticancer activity (colon cancer): strong anticancer activity
- increasing survival, compared with gemcitabine or 5-FU (colon cancer): superior to either gemcitabine or 5-FU
- preventing the spread of colon cancer metastases to the liver, compared with gemcitabine or 5-FU (colon cancer): superior to either gemcitabine or 5-FU
- cross-resistance to ara-C-resistant tumour cell lines [2]: partial cross-resistance
- oral bioavailability [3]: good
- effect on tumour xenografts (human tumour xenograft; gastric, mammary, lung, colorectal and hepatic tumour xenografts): tumour regressions were observed
- antitumour activity compared with 5′-DFUR and gemcitabine (human tumour xenograft; human xenografts of poorly differentiated gastric adenocarcinoma): much more potent antitumour activity than 5′-DFUR and gemcitabine
- antitumour activity in human tumour xenograft models (human tumour xenograft; variety of tumours): active against a variety of tumours
- dose limiting toxicity [4]: myelosuppression
- tolerability [4]: well tolerated
- activity in vivo against resistant P388 leukemia cell lines (P388 leukemia; P388 resistant to mitomycin C, vincristine, 5-FU or cisplatin): active
- antitumour activity compared with 5′-DFUR and gemcitabine (P388 leukemia; mouse P388 leukemia model): much more potent antitumour activity than 5′-DFUR and gemcitabine
- cytotoxicity of the parent drug [5]: cytotoxic
- major toxicities [6]: hematopoietic, gastrointestinal, and testicular

Compound: Nc1ccn([C@@H]2O[C@H](CO)[C@@H](O)C2(F)F)c(=O)n1 [Gemcitabine, gemcitabine]
- response rate (CTCL): 60-70%

Compound: Nc1ccn([C@@H]2CO[C@H](CO)O2)c(=O)n1 [troxacitabine]
- activity in NSCLC (NSCLC): little activity

Compound: N#CC1C(O)C(COP(=O)(O)OP(=O)(O)OP(=O)(O)O)OC1n1ccc(N)nc1=O (centres unmarked) [CNDACTP, CNDAC-triphosphate]
- inhibition of DNA polymerase (DNA polymerase): potent inhibition
